# Measurements published in US20240390298A1, “CYCLOHEXYL BETA-HYDROXY ALKYL AMINES AND MEDICAL USES THEREOF” (ATROGI AB, priority 2021, published 2024).
# Where a name gives a salt, the structure may show the parent alone.
# Columns and labels:
# L6-myotubes [1] = assay: Glucose uptake in differentiated L6-myotubes (3H-2-deoxyglucose), compared to isoproterenol; type: cell-based; details: agonist 1×10^−5 M, 50 nM 3H-2-deoxyglucose; for Emax at 10 µM: read-out: Biological example 1: glucose uptake, activity compared to that of isoproterenol
# In short: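 Serum-starved differentiated L6 myotubes stimulated with agonist at 1×10^−5 M for 1 h 40 min, re-dosed in glucose-free medium for 20 min, then given 50 nM ^3H-2-deoxyglucose for 10 min. Uptake read by β-counting of NaOH lysates; activity expressed relative to isoproterenol.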
# L6-myotubes [2] = assay: Measurement of intracellular cAMP levels in differentiated L6 cells (alpha screen cAMP kit), compared to isoproterenol; type: cell-based; details: agonist 1×10^−5 M, 15 min; for Emax at 10 µM: Rattus norvegicus, L6, 0.25 h, read-out: Biological example 2: intracellular cAMP levels, activity compared to that of isoproterenol
# In short: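 L6 myoblasts were differentiated into myotubes over 7 days in 2% FBS, then serum-starved overnight. Agonist at 1×10^−5 M final was applied for 15 min in HBSS with 1% BSA, 5 mM HEPES and 1 mM IBMX, pH 7.4. After ethanol extraction and lysis, cAMP was quantified by AlphaScreen, with activity expressed relative to isoproterenol.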
SMILES,Emax at 10 µM (L6-myotubes [1]) [%],Emax at 10 µM (L6-myotubes [2]) [%],"Biological example 1: glucose uptake, activity compared to that of isoproterenol (L6-myotubes [1])","Biological example 2: intracellular cAMP levels, activity compared to that of isoproterenol (L6-myotubes [2])"
"COC1CCC(CCCNC[C@H](O)c2cncc(F)c2)CC1 (stereo partly drawn) [Example 18, (R)-1-(5-Fluoropyridin-3-yl)-2-((3-((1r,4S)-4-methoxycyclohexyl)propyl)-amino)ethan-1-ol]",< 25,< 25,–,–
"CC(=O)N[C@H]1CC[C@H](CCC(C)(C)NC[C@H](O)c2cncc(F)c2)CC1 [Example 93, N-((1S,4r)-4-(3-(((R)-2-(5-Fluoropyridin-3-yl)-2-hydroxyethyl)amino)-3-methylbutyl)cyclohexyl)acetamide]",–,< 25,+ + +,–
"CC(C)(C[C@H]1CC[C@H](NC(=O)C(F)(F)F)CC1)NC[C@H](O)c1cccc(F)c1.Cl [Example 157, 2,2,2-Trifluoro-N-((1R,4r)-4-(2-(((R)-2-(3-fluorophenyl)-2-hydroxyethyl)-amino)-2-methylpropyl)cyclohexyl)acetamide hydrochloride]",–,25 to 50,+ + +,–
"O[C@@H](CNC[C@H]1CC[C@H](O)CC1)c1cncc(F)c1 [Example 32, (1R,4r)-4-((((R)-2-(5-Fluoropyridin-3-yl)-2-hydroxyethyl)amino)-methyl)cyclohexan-1-ol]",< 25,< 25,–,–
"O[C@@H](CNCCC[C@H]1CC[C@H](O)CC1)c1cccc(F)c1 [Example 57, (1S,4r)-4-(3-(((R)-2-(3-Fluorophenyl)-2-hydroxyethyl)amino)propyl)-cyclohexan-1-ol]",–,< 25,+ +,–
"CCCS(=O)(=O)N[C@H]1CC[C@@H](CC(C)(C)NC[C@H](O)c2cccc(F)c2)CC1 [Example 171, N-((1S,4s)-4-(2-(((R)-2-(3-Fluorophenyl)-2-hydroxyethyl)amino)-2-methylpropyl)cyclohexyl)propane-1-sulfonamide hydrochloride]",–,< 25,+ + +,–
"CO[C@H]1CC[C@@H](CCCNC[C@H](O)c2cccc(F)c2)CC1 [Example 19, (R)-1-(3-Fluorophenyl)-2-((3-((1s,4R)-4-methoxycyclohexyl)propyl)amino)-ethan-1-ol]",–,–,+ + +,+ +
"CC(C)(NC[C@H](O)c1cncc(F)c1)[C@H]1CC[C@H](OCc2ccccc2)CC1 [Example 39, (R)-2-((2-((1r,4R)-4-(Benzyloxy)cyclohexyl)propan-2-yl)amino)-1-(5-fluoropyridin-3-yl)ethan-1-ol]",–,< 25,+ +,–
"CO[C@H]1CC[C@H](CCNC[C@H](O)c2cncc(F)c2)CC1 [Example 12, (R)-1-(5-Fluoropyridin-3-yl)-2-((2-((1r,4R)-4-methoxycyclohexyl)ethyl)-amino)ethan-1-ol]",–,< 25,+ +,–
"CC(C)(C[C@H]1CC[C@@H](N)CC1)NC[C@H](O)c1cncc(F)c1 [Example 175, (R)-2-((1-((1s,4S)-4-Aminocyclohexyl)-2-methylpropan-2-yl)amino)-1-(5-fluoropyridin-3-yl)ethan-1-ol]",–,< 25,+ +,–
"CN([C@H]1CC[C@@H](CC(C)(C)NC[C@H](O)c2cccc(F)c2)CC1)S(C)(=O)=O.Cl [Example 181, N-((1S,4s)-4-(2-((®-2-(3-Fluorophenyl)-2-hydroxyethyl)amino)-2-methyl-propyl)cyclohexyl)-N-methylmethanesulfonamide hydrochloride]",–,< 25,+ +,–
"CC(=O)N[C@H]1CC[C@H](C(C)(C)NC[C@H](O)c2cncc(F)c2)CC1 [Example 81, N-((1R,4r)-4-(2-(((R)-2-(5-Fluoropyridin-3-yl)-2-hydroxyethyl)amino)-propan-2-yl)cyclohexyl)acetamide]",–,< 25,+ + +,–
"COC(=O)[C@H]1CC[C@@H](CC(C)(C)NC[C@H](O)c2cncc(F)c2)CC1 [Example 104, Methyl (1S,4s)-4-(2-(((R)-2-(5-fluoropyridin-3-yl)-2-hydroxyethyl)amino)-2-methylpropyl)cyclohexane-1-carboxylate]",–,< 25,+ + +,–
"CC(C)(C[C@H]1CC[C@@H](S(N)(=O)=O)CC1)NC[C@H](O)c1cncc(F)c1 [Example 197, (1S,4s)-4-(2-(((R)-2-(5-Fluoropyridin-3-yl)-2-hydroxyethyl)amino)-2-methylpropyl)cyclohexane-1-sulfonamide dihydrochloride]",–,< 25,+ + +,–
"CC(C)(NC[C@H](O)c1cccc(F)c1)[C@H]1CC[C@H](C(=O)O)CC1 [Example 101, (1R,4r)-4-(2-(((R)-2-(3-Fluorophenyl)-2-hydroxyethyl)amino)propan-2-yl)cyclohexane-1-carboxylic acid]",< 25,< 25,–,–
"O[C@@H](CNCCCC1CCC(OCc2ccccc2)CC1)c1cccc(F)c1 (stereo partly drawn) [Example 53, (R)-2-((3-((1r,4S)-4-(Benzyloxy)cyclohexyl)propyl)amino)-1-(3-fluoro-phenyl)ethan-1-ol]",25 to 50,< 25,–,–
"CN(C)C(=O)N[C@H]1CC[C@H](CC(C)(C)NC[C@H](O)c2cccc(F)c2)CC1.Cl [Example 158, 3-((1R,4r)-4-(2-(((R)-2-(3-Fluorophenyl)-2-hydroxyethyl)amino)-2-methyl-propyl)cyclohexyl)-1,1-dimethylurea hydrochloride]",–,–,+ + +,+ + +
"CC(C)(CC[C@H]1CC[C@@H](C(=O)O)CC1)NC[C@H](O)c1cccc(F)c1 [Example 113, (1S,4s)-4-(3-(((R)-2-(3-Fluorophenyl)-2-hydroxyethyl)amino)-3-methyl-butyl)cyclohexane-1-carboxylic acid]",25 to 50,< 25,–,–
"CNS(=O)(=O)[C@H]1CC[C@@H](CC(C)(C)NC[C@H](O)c2cncc(F)c2)CC1 [Example 193, (1S,4s)-4-(2-(((R)-2-(5-Fluoropyridin-3-yl)-2-hydroxyethyl)amino)-2-methylpropyl)-N-methylcyclohexane-1-sulfonamide dihydrochloride]",–,< 25,+ + +,–
"CC(C)(NC[C@H](O)c1cncc(F)c1)[C@H]1CC[C@H](O)CC1 [Example 40, (1R,4r)-4-(2-(((R)-2-(5-Fluoropyridin-3-yl)-2-hydroxyethyl)amino)propan-2-yl)cyclohexan-1-ol]",–,< 25,+ +,–
CC(C)(NC[C@H](O)c1cncc(F)c1)[C@H]1CC[C@H](N)CC1 [Example 79],< 25,< 25,–,–
"CC(C)(CC[C@H]1CC[C@H](C(=O)O)CC1)NC[C@H](O)c1cccc(F)c1 [Example 117, (1R,4r)-4-(3-(((R)-2-(3-Fluorophenyl)-2-hydroxyethyl)amino)-3-methyl-butyl)cyclohexane-1-carboxylic acid]",< 25,< 25,–,–
